This passage reports Swelling percent and anti-inflammatory action results from patent publication EP0361348A1, “Non-steroidal pharmaceutical composition and process for producing the same” (NIPPON HYPOX LABORATORIES INCORPORATED, priority 1988, dated 1990).

This experiment has as its system male SD rats. Kind of experiment: Anti-inflammatory action: carrageenin-induced sole swelling (plethysmometer). Type of experiment: in vivo. The following applies: 1 mg/kg in terms of Piroxicam, oral; for Swelling percent: 1 hour before carrageenin, mean, n=5. How it is done: As test animals, there were used male SD rats each weighing about 200 g. As a test sample, there was used a suspension of each of the anti-inflammatory agent compositions No. 1-4 obtained in Examples 1-4 above, in a gum arabic solution (the concentration of Piroxicam in the suspension was 1%). This test sample was orally administered to each rat in an amount of 1 mg/kg in terms of Piroxicam. One hour after the administration of the test sample, an inflammatory agent (0.1 ml of a physiological saline solution containing 1% of carrageenin) was subcutaneously injected to each rat at the sole. Then, the sole volume was measured with the lapse of time using a plethysmometer, and swelling percent was calculated from the following formula. Swelling percent (%) = [(Ps - Po)/Po] x 100 where Po = sole volume before injection of carrageenin Ps = sole volume at a certain time after the injection of carrageenin For comparison, Piroxicam alone was orally administered in an amount of 1 mg/kg, in the same manner as above, and the change of swelling percent with time was examined.

Take `CN1C(C(=O)Nc2ccccn2)=C(O)c2ccccc2S1(=O)=O` [Piroxicam alone, Piroxicam]: the Swelling percent runs as follows: (0.5 hour after carrageenin injection) 26.79%; (1 hour after carrageenin injection) 39.51%; (1.5 hours after carrageenin injection) 46.71%; (2 hours after carrageenin injection) 45.72%; (3 hours after carrageenin injection) 43.77%; (4 hours after carrageenin injection) 44.33%. Further, the anti-inflammatory action result (result in words, from Table 1) is “significant anti-inflammatory action”.
